“Also recorded” adds a separate entry of the source.
Assays:
Assay type in all cases: physicochemical
[1] = DTPA challenge of ^225Ac complexes, iTLC-SG; conditions: 30 min; for free ^225Ac by iTLC-SG after DTPA challenge / free Ac-225 at the solvent front of the iTLC-SG after DTPA challenge: free chelator, 10 mM DTPA; for free ^225Ac by iTLC-SG after DTPA challenge: high ^225Ac/chelator ratio (50 μCi); for free Ac-225 at the solvent front of the iTLC-SG after DTPA challenge: low ^225Ac/chelator ratio; for chelated Ac-225 (iTLC) after DTPA: reaction mixture with 10 mM DTPA (pH 6.5)
Method: DTPA challenge: 0.5 μL of the reaction mixture was mixed with 15 μL of 10 mM DTPA solution and the mixture was incubated for 30 min.
DTPA challenge: 10 μL of fraction #3 collected after PD-10 column was mixed with 15 μL of 10 mM DTPA solution (pH 6.5), and incubated for 30 min.
0.5 μL of reaction mixture was mixed with 15 μL 10 mM DTPA (pH 6.5) and incubated for 30 min.

[2] = ^225Ac(III) chelation / labeling, iTLC-SG analysis; conditions: pH ~6.5; for free ^225Ac by iTLC-SG before DTPA challenge / free Ac-225 at the solvent front of the iTLC-SG: free chelator; for free ^225Ac by iTLC-SG before DTPA challenge: high ^225Ac/chelator ratio (50 μCi), room temperature 1.5-2 hr; for free Ac-225 at the solvent front of the iTLC-SG: low ^225Ac/chelator ratio (30 μCi), room temperature 1-2 hr; for chelated Ac-225 (iTLC): free chelator (2 mg/mL 3 μL; ethoxylmethyl isomers 1 mg/mL 1 μL), 30 μCi ^225Ac, 37° C. 2 h
[3] = Chelation test with Lanthanum (III) (HPLC, LCMS); conditions: La(NO3)3, room temperature
Method: HPLC method: XBridge C18 3.5 μm 150×4.6 mm, 100 Å column; Mobile phase A: 0.1% TFA in H2O, B: 0.1% TFA in ACN; gradient 10% to 30% B in 0-20 min, gradient 30% to 100% B in 20-20.1 min, isocratic at 100% B in 20.1-25 min, gradient 100% to 10% B in 25-25.1 min, isocratic at 10% B in 25.1-30 min; postrun 3 min; flow rate 1 mL/min; column temperature 30° C.; injection volume 5 uL. Synthesis and Characterization of H2bp18c6-Benzyl-Phenyl
An aqueous solution of H2bp18c6-benzyl-isopentyl in water (˜3 mg/mL=˜5 mM, 20 μL, 0.1 μmol) was treated with La(NO3)3 (10 mM in metal free water, 50 μL, 0.5 μmol). An aqueous solution of H2bp18c6-benzyl-phenyl in water (˜3 mg/mL=˜5 mM, 20 μL, 0.1 μmol) was treated with La(NO3)3 (10 mM in metal free water, 50 μL, 0.5 μmol). After thorough mixing, each solution was analyzed by LCMS and HPLC to determine whether complexes of the chelator and La^3+ formed.
Complex formation was also confirmed by LCMS.

chelated Ac-225 (iTLC) after DTPA [1] | chelated Ac-225 (iTLC) [2] | Structure (SMILES) | also measured
 |  | CC(C)CCC(c1cccc(C(=O)O)n1)N1CCOCCOCCN(Cc2cccc(C(=O)O)n2)CCOCCOCC1 (centres unmarked) | free ^225Ac by iTLC-SG after DTPA challenge [1]: No free ^225Ac was detected; free Ac-225 at the solvent front of the iTLC-SG after DTPA challenge [1]: No radioactivity was observed at the solvent front; free ^225Ac by iTLC-SG before DTPA challenge [2]: No free ^225Ac was detected; free Ac-225 at the solvent front of the iTLC-SG [2]: No radioactivity was observed at the solvent front; chelation with La^3+ (shift in HPLC peak retention time) [3]: rapid chelation; chelation with La^3+ (shift in HPLC peak retention time) ([3]; listed as isopentane-H2bp18c6): rapid and stoichiometric chelation
99% | 99% | O=C(O)c1cccc(CN2CCOCCOCCN(Cc3cccc(C(=O)O)n3)CCO[C@@H]3CCC[C@@H]3OCC2)n1 | 
99% | 99% | O=C(O)c1cccc(CN2CCOCCOCCN(Cc3cccc(C(=O)O)n3)CCO[C@@H]3CCCC[C@H]3OCC2)n1 | 
99% | 99% | O=C(O)c1cccc(CN2CCOCCOCCN(Cc3cccc(C(=O)O)n3)CCO[C@@H]3CCC[C@H]3OCC2)n1 | 
99% | 99% | CCOC[C@@H]1COCCN(Cc2cccc(C(=O)O)n2)CCOCCOCCN(Cc2cccc(C(=O)O)n2)CCO1 (single isomer, unassigned) [H2bp18c6-off Macrocycle-ethoxylmethyl isomer II] | 
99% | 99% | CCOC[C@H]1COCCN(Cc2cccc(C(=O)O)n2)CCOCCOCCN(Cc2cccc(C(=O)O)n2)CCO1 (single isomer, unassigned) [H2bp18c6-off Macrocycle-ethoxylmethyl isomer I] | 
99% | 99% | O=C(O)c1cccc(CN2CCOCCOCCN(Cc3cccc(C(=O)O)n3)CCO[C@H](CO)COCC2)n1 (single isomer, unassigned) [H2bp18c6-off Macrocycle-hydroxylmethyl isomer II] | 
99% | 99% | O=C(O)c1cccc(CN2CCOCCOCCN(Cc3cccc(C(=O)O)n3)CCO[C@@H](CO)COCC2)n1 (single isomer, unassigned) [H2bp18c6-off Macrocycle-hydroxylmethyl isomer I] | 
 |  | O=C(NCCC(=O)N1Cc2ccccc2C#Cc2ccccc21)c1ccc(C(c2cccc(C(=O)O)n2)N2CCOCCOCCN(Cc3cccc(C(=O)O)n3)CCOCCOCC2)cc1 (centres unmarked) [H2bp18c6-benzyl-phenyl-DBCO] | free Ac-225 at the solvent front of the iTLC-SG after DTPA challenge [1]: No radioactivity was detected at the solvent front; free Ac-225 at the solvent front of the iTLC-SG [2]: No radioactivity activity was observed at the solvent front
 |  | O=C(O)c1cccc(CN2CCOCCOCCN(C(c3ccccc3)c3cccc(C(=O)O)n3)CCOCCOCC2)n1 (centres unmarked) [H2bp18c6-benzyl-phenyl] | free ^225Ac by iTLC-SG after DTPA challenge [1]: No free ^225Ac was detected; free Ac-225 at the solvent front of the iTLC-SG after DTPA challenge [1]: No free ^225Ac was detected after DTPA challenge; free ^225Ac by iTLC-SG before DTPA challenge [2]: No free ^225Ac was detected; free Ac-225 at the solvent front of the iTLC-SG [2]: No free ^225Ac ion was detected; also recorded: No radioactivity was observed at the solvent front; chelation with La^3+ (shift in HPLC peak retention time) [3]: rapid and stoichiometric chelation
99% | 99% | O=C(O)c1cccc(CN2CCOCCOCCN(Cc3cccc(C(=O)O)n3)CCO[C@@H]3CCCC[C@@H]3OCC2)n1 [H2bp18c6-cis-cyclohexyl-fused Macrocycle] | 

From patent publication US12453785B2, “Macrocyclic chelators and methods of use thereof” (JANSSEN BIOTECH, INC., priority 2019, dated 2025)
